Results on 17 molecules are retold here after publication PMC11381239, “Endocannabinoid regulation of inward rectifier potassium (Kir) channels” (Frontiers in Pharmacology, 2024).

Residue numbers refer to the chain shown, from its start. Read-outs that look alike come from different tables or passages of the source.

Holding throughout (assay): two-electrode voltage clamp, slope conductance Gmax
Holding throughout (type): cell-based
On the technique in general: Two-electrode voltage clamp is typically applied to oocytes expressing channels or transporters.

The target in one assay is T1, Kir2.1 (Homo sapiens, UniProt P63252).
T1 construct: gene KCNJ2; full-length human Kir2.1 cDNA in pcDNA3.1, RNA expressed in Xenopus laevis oocytes; homotetramer
T1 sequence (P63252 1-427): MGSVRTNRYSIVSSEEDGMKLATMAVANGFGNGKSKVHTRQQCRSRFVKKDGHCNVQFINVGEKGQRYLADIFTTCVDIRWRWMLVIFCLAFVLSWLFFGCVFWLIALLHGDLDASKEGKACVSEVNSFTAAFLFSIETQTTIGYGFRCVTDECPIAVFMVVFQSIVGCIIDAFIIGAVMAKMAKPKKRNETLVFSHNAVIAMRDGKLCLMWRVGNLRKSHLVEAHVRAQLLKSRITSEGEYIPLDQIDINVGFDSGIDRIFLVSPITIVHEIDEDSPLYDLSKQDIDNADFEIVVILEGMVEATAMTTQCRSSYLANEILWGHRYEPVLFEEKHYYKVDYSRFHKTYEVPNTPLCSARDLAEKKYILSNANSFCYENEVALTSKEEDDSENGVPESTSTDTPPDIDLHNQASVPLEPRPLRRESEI
Conditions: for Emax (%): maximal increase in Gmax, vehicle (ethanol) control in same table. The source says: two-electrode voltage clamp, slope conductance Gmax on Kir2.1

A further assay has as its target T2, WT:G144S Kir2.1 (Homo sapiens, UniProt P63252, G144S).
T2 construct: gene KCNJ2; WT Kir2.1 co-expressed 1:1 with LQT7 mutant G144S Kir2.1 in Xenopus laevis oocytes; mixed tetramers, exact subunit stoichiometry not fixed
T2 sequence (P63252 1-427): T1 sequence (P63252 1-427)
T2 sequence (P63252 1-427 G144S): T1 sequence (P63252 1-427) with G144S

For a further assay, the target named is T3, Kir4.1 (Rattus norvegicus, UniProt P49655).
T3 construct: gene Kcnj10; full-length rat Kir4.1 cDNA in pcDNA3.1, RNA expressed in Xenopus laevis oocytes; homotetramer
T3 sequence (P49655 1-379): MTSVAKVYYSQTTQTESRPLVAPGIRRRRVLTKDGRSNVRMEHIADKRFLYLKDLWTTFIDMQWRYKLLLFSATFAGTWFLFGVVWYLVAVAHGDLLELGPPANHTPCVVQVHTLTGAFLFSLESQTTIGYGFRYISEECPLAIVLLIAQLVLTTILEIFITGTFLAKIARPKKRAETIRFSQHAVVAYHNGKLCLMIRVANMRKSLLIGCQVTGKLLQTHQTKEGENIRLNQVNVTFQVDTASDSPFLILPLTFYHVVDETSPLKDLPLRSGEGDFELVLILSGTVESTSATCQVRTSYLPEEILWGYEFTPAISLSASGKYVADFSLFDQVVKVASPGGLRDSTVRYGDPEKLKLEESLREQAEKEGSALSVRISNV
The source says: two-electrode voltage clamp, slope conductance Gmax on Kir4.1

Where [1] appears, read: 89 mM KCl bath, pH 7.4, room temperature.

Usually EC50 stands for the concentration at which the effect is half-maximal. Low readings indicate a more potent agent, high ones a less potent agent.

`CCCCC/C=C\C/C=C\C/C=C\C/C=C\CCCC(=O)OCC(O)CO` (stereo not drawn) [1-AG] yielded an EC50 on Kir2.1 of 20 ± 0.9 µM.

At Kir2.1, `CCCCC/C=C\C/C=C\C/C=C\C/C=C\CCCC(=O)OC(CO)CO` [2-AG] came in with an EC50 of 25.5 ± 1.1 µM. The EC50 values of the last two molecules are within 1.5-fold of each other.

In the case of `CCCCC/C=C\C/C=C\CCCCCCCC(=O)OC(CO)CO` [2-LG], the “Emax (%)” value at Kir2.1 (setting [1]) worked out at 5.4 ± 0.3%.

As for `CCCCCCCCCCCCCCCC(=O)OC(CO)CO` [2-PG], the EC50 worked out at 12.7 ± 2 µM on Kir2.1, 11.7 ± 1 µM on WT:G144S Kir2.1 and 12.4 ± 0.7 µM on Kir4.1.

For the molecule `CCCCC/C=C\C/C=C\C/C=C\C/C=C\CCCC(=O)NCCO` [AEA], the “Emax (%)” value on Kir2.1 (setting [1]) is 5.3 ± 1.3%.

Take `CCCCC/C=C\C/C=C\C/C=C\C/C=C\CCCC(=O)N[C@@H](CO)C(=O)O` [AS]: the “Emax (%)” value at Kir2.1 (setting [1]) is 1.0 ± 0.1%.

Regarding `CCCCCCCCCCCCCCCCCCCC(=O)NCCO` [ArEA], the values for the EC50 at Kir2.1, at WT:G144S Kir2.1 and on Kir4.1 were 12.6 ± 4.1 µM, 30.7 ± 3.4 µM and 4.5 ± 3.9 µM, respectively.

Regarding `CCCCC/C=C\C/C=C\C/C=C\C/C=C\CCCCCC(=O)NCCO` [DEA], it took 32 ± 3.9 µM to reach a half-maximal effect at Kir2.1 (EC50).

Molecule `CCCCC/C=C\C/C=C\CCCCCCCC(=O)NCCO` [LEA] had an EC50 at Kir2.1 of 29 ± 1 µM.

On Kir2.1, `CCCCC/C=C\C/C=C\C/C=C\C/C=C\CCCC(=O)NCC(=O)O` [NAGly] yielded an EC50 of 27.7 ± 2.8 µM.

For `CCCCCCCC/C=C\CCCCCCCCCCCCCC(=O)NCCO` [NEA], the response on Kir2.1 was half-maximal at 23.3 ± 2.1 µM (EC50).

`CCCCCCCC/C=C\CCCCCCCC(=O)NCCO` [OEA]: on Kir2.1, the EC50 stood at 9.2 ± 0.9 µM. Against the preceding molecule, the EC50 is about 2.5-fold lower.

As for `CCCCCC/C=C\CCCCCCCC(=O)NCCO` [POEA], the EC50 on Kir2.1 turned out to be 9.3 ± 0.7 µM.

`CCCCCCCCCCCCCCCCCC(=O)NCCO` [SEA]: the EC50 at Kir2.1 was 10.2 ± 4.9 µM.

In turn, `CC/C=C\C/C=C\C/C=C\CCCCCCCC(=O)NCCO` [αLnEA] yielded an EC50 on Kir2.1 of 24.5 ± 4.2 µM. This EC50 lies about 2.4-fold higher than the previous one.

`CCCCC/C=C\C/C=C\C/C=C\CCCCC(=O)NCCO` [ϒLnEA]: at Kir2.1, it took 36.8 ± 3.8 µM to reach a half-maximal effect (EC50).

On Kir2.1 (activation, 89 mM KCl bath, pH 7.4, room temperature, mode: indirect via membrane according to authors), oxy-AEA displayed an EC50 of 25.3 ± 1.1 µM.
